# Starred links: 1 amine or outer side, 2 acyl side, 3 side chain; linkers in the order of their positions; H or OH if unused. Positions of bridges follow the written chain, without caps; N, C: chain ends. Non-standard residues stand in square brackets, D forms with d. Residues, ends and D or L forms follow the SMILES beside them. *: point of attachment. Ala(piperidin-4-yl) = O=C([C@H](CC1CCN([*:3])CC1)N[*:1])[*:2]; Ala(1-amidino-4-piperidyl) = N=C(N)N1CCC(C[C@H](N)C(=O)O)CC1; Phe(4-guanidino) = N=C(N)Nc1ccc(C[C@H](N)C(=O)O)cc1; X9 = COc1ccc(Cn2cnc(C[C@H](N[*:1])C(=O)[*:2])c2)cc1; Phe(4-amidino) = N=C(N)c1ccc(C[C@H](N)C(=O)O)cc1; X6 = O=C([C@H](C[S+]([O-])Cc1cccnc1)N[*:1])[*:2]; Phe(3,4-Cl2) = N[C@@H](Cc1ccc(Cl)c(Cl)c1)C(=O)O; Phe(3-Cl) = N[C@@H](Cc1cccc(Cl)c1)C(=O)O; Phe(2-Cl) = N[C@@H](Cc1ccccc1Cl)C(=O)O; Phe(4-F) = N[C@@H](Cc1ccc(F)cc1)C(=O)O; Bta = N[C@@H](Cc1csc2ccccc12)C(=O)O; Hyp = O=C(O)[C@@H]1C[C@@H](O)CN1; PhLac = O=C(O)[C@@H](O)Cc1ccccc1; d(hLeu) = CC(C)CC[C@@H](N)C(=O)O; hCit = NC(=O)NCCCC[C@H](N)C(=O)O; 4Pal = N[C@@H](Cc1ccncc1)C(=O)O; Cha = N[C@@H](CC1CCCCC1)C(=O)O; Cit = NC(=O)NCCC[C@H](N)C(=O)O; dCha = N[C@H](CC1CCCCC1)C(=O)O; NMeA = CN[C@@H](C)C(=O)O; Nle = CCCC[C@H](N)C(=O)O; Orn = NCCC[C@H](N)C(=O)O; Dab = NCC[C@H](N)C(=O)O; X17 = c1cc(CC*)ccn1; X16 = c1ccc(C*)nc1; X18 = c1cc(C*)ccn1; X22 = c1cncc(C*)c1
# Biological target: T1, human C5aR(CD88) (Homo sapiens, UniProt P21730)
# T1 construct: expressed in transfected cells; host or cells: rat basophilic leukemia cells (RBL)
# T1 sequence (P21730 1-350): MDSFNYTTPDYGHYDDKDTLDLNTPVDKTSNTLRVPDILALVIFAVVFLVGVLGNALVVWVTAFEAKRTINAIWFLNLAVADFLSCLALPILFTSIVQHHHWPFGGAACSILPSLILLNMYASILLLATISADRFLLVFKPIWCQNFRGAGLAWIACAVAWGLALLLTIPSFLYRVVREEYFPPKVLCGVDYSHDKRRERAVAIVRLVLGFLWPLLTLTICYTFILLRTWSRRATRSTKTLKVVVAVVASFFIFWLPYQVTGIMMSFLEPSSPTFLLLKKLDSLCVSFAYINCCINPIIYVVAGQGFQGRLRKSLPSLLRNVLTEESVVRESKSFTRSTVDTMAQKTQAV
# Experiment: Determination of the IC50 value in an enzyme release assay (functional assay, antagonistic activity)
# Format: cell-based
# Conditions: antagonistic activity; IC50 group in enzyme release assay, RBL cells expressing human C5aR(CD88); read-out: activity (group)
row,Compound,IC50 [µM]
1,"CCCC[C@@H]1NC(=O)[C@H](Cc2ccc(Cl)c(Cl)c2)NC(=O)[C@@H](CCC(C)C)NC(=O)[C@H](CO)NC(=O)[C@@H](NC(=O)[C@@H](N)Cc2ccccc2)CCCNC1=O [Compound 384, H-Phe-[Orn-Ser-hle-Eaa-Nle]] (H-F[Orn]S[d(hLeu)][Phe(3,4-Cl2)][Nle]; lactam 2-C)",0.05 to 0.2
2,"CC(C)CC[C@H]1NC(=O)[C@H](CO)NC(=O)[C@@H](NC(=O)[C@@H](N)Cc2ccccc2)CCCNC(=O)[C@H](CC(C)C)NC(=O)[C@H](Cc2cccc(Cl)c2)NC1=O [Compound 385, H-Phe-[Orn-Ser-hle-Mcf-Leu]] (H-F[Orn]S[d(hLeu)][Phe(3-Cl)]L; lactam 2-C)",0.05 to 0.2
3,"CCCC[C@@H]1NC(=O)[C@H](Cc2ccccc2Cl)NC(=O)[C@@H](CCC(C)C)NC(=O)[C@H](CO)NC(=O)[C@@H](NC(=O)[C@@H](N)Cc2ccccc2)CCCNC1=O [Compound 386, H-Phe-[Orn-Ser-hle-Ocf-Nle]] (H-F[Orn]S[d(hLeu)][Phe(2-Cl)][Nle]; lactam 2-C)",0.05 to 0.2
4,"CC(C)CC[C@H]1NC(=O)[C@H](CO)NC(=O)[C@@H](NC(=O)[C@@H](N)Cc2ccccc2)CCCNC(=O)[C@H](CC(C)C)NC(=O)[C@H](Cc2ccc(F)cc2)NC1=O [Compound 387, H-Phe-[Orn-Ser-hle-Pff-Leu]] (H-F[Orn]S[d(hLeu)][Phe(4-F)]L; lactam 2-C)",0.05 to 0.2
5,"CCCC[C@@H]1NC(=O)[C@H](Cc2ccc(F)cc2)NC(=O)[C@@H](CCC(C)C)NC(=O)[C@H](CO)NC(=O)[C@@H](NC(=O)[C@@H](N)Cc2ccccc2)CCCNC1=O [Compound 388, H-Phe-[Orn-Ser-hle-Pff-Nle]] (H-F[Orn]S[d(hLeu)][Phe(4-F)][Nle]; lactam 2-C)",0.02 to 0.05
6,"CC(C)CC[C@H]1NC(=O)[C@H](CO)NC(=O)[C@@H](NC(=O)[C@@H](N)Cc2ccccc2)CCCNC(=O)[C@H](Cc2ccccc2)NC(=O)[C@H](Cc2ccc(F)cc2)NC1=O [Compound 389, H-Phe-[Orn-Ser-hle-Pff-Phe]] (H-F[Orn]S[d(hLeu)][Phe(4-F)]F; lactam 2-C)",0.05 to 0.2
7,"CCCC[C@@H]1NC(=O)[C@H](Cc2c[nH]c3ccccc23)NC(=O)[C@@H](CCC(C)C)NC(=O)[C@H](CO)NC(=O)[C@@H](NC(=O)[C@@H](N)Cc2ccccc2)CCCNC1=O [Compound 390, H-Phe-[Orn-Ser-hle-Trp-Nle]] (H-F[Orn]S[d(hLeu)]W[Nle]; lactam 2-C)",0.02 to 0.05
8,"CC(C)CC[C@@H](NC(=O)[C@@H]1CCCN1C(=O)[C@H](CCCNC(N)=O)NC(=O)[C@@H](N)Cc1ccccc1)C(=O)N[C@@H](Cc1csc2ccccc12)C(=O)N[C@@H](Cc1ccccc1)C(N)=O [Compound 391, H-Phe-Cit-Pro-hle-Bta-Phe-NH2] (H-F[Cit]P[d(hLeu)][Bta]F-NH2)",0.05 to 0.2
9,"CCCC[C@@H]1NC(=O)[C@H](Cc2c[nH]c3ccccc23)NC(=O)[C@@H](CCC(C)C)NC(=O)[C@@H]2C[C@@H](O)CN2C(=O)[C@@H](NC(=O)[C@@H](O)Cc2ccccc2)CCCNC1=O [Compound 392, Ohf-[Orn-Hyp-hle-Trp-Nle]] (H-[PhLac][Orn][Hyp][d(hLeu)]W[Nle]; lactam 2-C)",0.05 to 0.2
10,CC(=O)N[C@@H](Cc1ccccc1)C(=O)N[C@H]1CCCNC(=O)[C@H](CCCCNC(=N)N)NC(=O)[C@H](Cc2c[nH]c3ccccc23)NC(=O)[C@@H](CC2CCCCC2)NC(=O)[C@@H]2CCCN2C1=O [compound 8],0.2 to 2
11,CC(=O)N[C@@H](Cc1ccccc1)C(=O)N[C@H]1CCCNC(=O)[C@H](Cc2ccc(NC(=N)N)cc2)NC(=O)[C@H](Cc2c[nH]c3ccccc23)NC(=O)[C@@H](CC2CCCCC2)NC(=O)[C@@H]2CCCN2C1=O [compound 9] (Ac-F[Orn]P[dCha]W[Phe(4-guanidino)]; lactam 2-C),0.2 to 2
12,CC(=O)N[C@@H](Cc1ccccc1)C(=O)N[C@H]1CCCNC(=O)[C@H](CCC/N=C(/N)N[N+](=O)[O-])NC(=O)[C@H](Cc2c[nH]c3ccccc23)NC(=O)[C@@H](CC2CCCCC2)NC(=O)[C@@H]2CCCN2C1=O [compound 11],0.2 to 2
13,CC(=O)N[C@@H](Cc1ccccc1)C(=O)N[C@H]1CCCNC(=O)[C@H](CCCCNC(N)=O)NC(=O)[C@H](Cc2c[nH]c3ccccc23)NC(=O)[C@@H](CC2CCCCC2)NC(=O)[C@@H]2CCCN2C1=O [compound 13] (Ac-F[Orn]P[dCha]W[hCit]; lactam 2-C),0.2 to 2
14,CC(=O)N[C@@H](Cc1ccccc1)C(=O)N[C@H]1CCCNC(=O)[C@H](CSCc2ccncc2)NC(=O)[C@H](Cc2c[nH]c3ccccc23)NC(=O)[C@@H](CC2CCCCC2)NC(=O)[C@@H]2CCCN2C1=O [compound 15] (Ac-F[Orn]P[dCha]WC(X18); lactam 2-C),0.2 to 2
15,CC(=O)N[C@@H](Cc1ccccc1)C(=O)N[C@H]1CCCNC(=O)[C@H](C[S+]([O-])Cc2cccnc2)NC(=O)[C@H](Cc2c[nH]c3ccccc23)NC(=O)[C@@H](CC2CCCCC2)NC(=O)[C@@H]2CCCN2C1=O (stereo partly shown) [compound 16] (Ac-F[Orn]P[dCha]W[X6]; lactam 2-C),0.2 to 2
16,CC(=O)N[C@@H](Cc1ccccc1)C(=O)N[C@H]1CCCNC(=O)[C@H](CSCc2cccnc2)NC(=O)[C@H](Cc2c[nH]c3ccccc23)NC(=O)[C@@H](CC2CCCCC2)NC(=O)[C@@H]2CCCN2C1=O [compound 17] (Ac-F[Orn]P[dCha]WC(X22); lactam 2-C),0.2 to 2
17,CC(=O)N[C@@H](Cc1ccccc1)C(=O)N[C@H]1CCCNC(=O)[C@H](CSCc2ccccn2)NC(=O)[C@H](Cc2c[nH]c3ccccc23)NC(=O)[C@@H](CC2CCCCC2)NC(=O)[C@@H]2CCCN2C1=O [compound 18] (Ac-F[Orn]P[dCha]WC(X16); lactam 2-C),0.2 to 2
18,CC(=O)N[C@@H](Cc1ccccc1)C(=O)N[C@H]1CCCNC(=O)[C@H](CSCCc2ccncc2)NC(=O)[C@H](Cc2c[nH]c3ccccc23)NC(=O)[C@@H](CC2CCCCC2)NC(=O)[C@@H]2CCCN2C1=O [compound 19] (Ac-F[Orn]P[dCha]WC(X17); lactam 2-C),0.2 to 2

# The next lines start with the values.
row,IC50 [µM],Compound
1,0.2 to 2,CC(=O)N[C@@H](Cc1ccccc1)C(=O)N[C@H]1CCCNC(=O)[C@H](Cc2ccc(C(=N)N)cc2)NC(=O)[C@H](Cc2c[nH]c3ccccc23)NC(=O)[C@@H](CC2CCCCC2)NC(=O)[C@@H]2CCCN2C1=O [compound 21] (Ac-F[Orn]P[dCha]W[Phe(4-amidino)]; lactam 2-C)
2,0.05 to 0.2,CC(=O)N[C@@H](Cc1ccccc1)C(=O)N[C@H]1CCCNC(=O)[C@H](Cc2ccncc2)NC(=O)[C@H](Cc2c[nH]c3ccccc23)NC(=O)[C@@H](CC2CCCCC2)NC(=O)[C@@H]2CCCN2C1=O [compound 23] (Ac-F[Orn]P[dCha]W[4Pal]; lactam 2-C)
3,0.05 to 0.2,CC(=O)N[C@@H](Cc1ccccc1)C(=O)N[C@H]1CCCNC(=O)[C@H](CCN)NC(=O)[C@H](Cc2c[nH]c3ccccc23)NC(=O)[C@@H](CC2CCCCC2)NC(=O)[C@@H]2CCCN2C1=O [compound 25] (Ac-F[Orn]P[dCha]W[Dab]; lactam 2-C)
4,0.2 to 2,COc1ccc(Cn2cnc(C[C@@H]3NC(=O)[C@H](Cc4c[nH]c5ccccc45)NC(=O)[C@@H](CC4CCCCC4)NC(=O)[C@@H]4CCCN4C(=O)[C@@H](NC(=O)[C@H](Cc4ccccc4)NC(C)=O)CCCNC3=O)c2)cc1 [compound 26] (Ac-F[Orn]P[dCha]W[X9]; lactam 2-C)
5,> 2,CC(=O)N[C@@H](Cc1ccccc1)C(=O)N[C@H]1CCCNC(=O)[C@H](CC2CCNCC2)NC(=O)[C@H](Cc2c[nH]c3ccccc23)NC(=O)[C@@H](CC2CCCCC2)NC(=O)[C@@H]2CCCN2C1=O [compound 27] (Ac-F[Orn]P[dCha]W[Ala(piperidin-4-yl)]; lactam 2-C)
6,> 2,CC(=O)N[C@@H](Cc1ccccc1)C(=O)N[C@H]1CCCNC(=O)[C@H](CC2CCN(C(=N)N)CC2)NC(=O)[C@H](Cc2c[nH]c3ccccc23)NC(=O)[C@@H](CC2CCCCC2)NC(=O)[C@@H]2CCCN2C1=O [compound 30] (Ac-F[Orn]P[dCha]W[Ala(1-amidino-4-piperidyl)]; lactam 2-C)
7,0.02 to 0.05,CC(=O)N[C@@H](Cc1ccccc1)C(=O)N[C@H]1CCCNC(=O)[C@H](CCCNC(=N)N)NC(=O)[C@H](Cc2c[nH]c3ccccc23)NC(=O)[C@@H](CC2CCCCC2)NC(=O)[C@H](C)N(C)C1=O [compound 46] (Ac-F[Orn][NMeA][dCha]WR; lactam 2-C)
8,> 2,CC(=O)N[C@@H](Cc1ccccc1)C(=O)N[C@H]1CCCNC(=O)[C@H](CCCN=C(N)N)NC(=O)[C@H](C)NC(=O)[C@@H](CC2CCCCC2)NC(=O)[C@@H]2CCCN2C1=O [compound 48] (Ac-F[Orn]P[dCha]AR; lactam 2-C)
9,0.2 to 2,CC(=O)N[C@@H](Cc1ccccc1)C(=O)N[C@@H](CCCCN)C(=O)N[C@@H](C)C(=O)N[C@@H](CC1CCCCC1)C(=O)N[C@@H](C)C(=O)N[C@@H](CC(C)C)C(=O)N[C@H](C)C(=O)N[C@@H](Cc1ccc(O)cc1)C(=O)O [compound 60] (Ac-FKA[Cha]AL[dA]Y-OH)

# Same assay, conditions: functional assay of example 11; noteworthy = IC50 less than 200 nM
row,Compound,inhibitory activity (in words)
1,Ac-Phe-[Orn-Hyp(CONHCH2COH(OH)CH2OH)-cha-Trp-Phe],noteworthy inhibitory activity
